Measurements: patent US20110105349A1, “USE OF A MONOPHOSPHATE ESTER OF A PHTHALEIN COMPOUND AS A SUBSTRATE FOR TARTRATE-RESISTANT ACID PHOSPHATASE B5 (TRAP 5B)” (MUNODIAGNOSTIC SYSTEMS LIMITED, priority 2008, published 2011)

Assays:
TRAP5b [1] = conditions: cited from earlier work
TRAP5a = target: T1, TRAP5a (Homo sapiens, UniProt P13686); test: Activity with phthalein monophosphate esters at 0.47 mg/mL, pH 7.4 (Example 8); format: biochemical; set-up: unit not given beside the values; conditions: 0.47 mg/mL in 100 mM MES pH7.4
T1 construct: Serum-derived TRAP5a and TRAP5b were separated by ion exchange chromatography; from tissue; host or cells: human serum
T1 sequence (P13686 22-325): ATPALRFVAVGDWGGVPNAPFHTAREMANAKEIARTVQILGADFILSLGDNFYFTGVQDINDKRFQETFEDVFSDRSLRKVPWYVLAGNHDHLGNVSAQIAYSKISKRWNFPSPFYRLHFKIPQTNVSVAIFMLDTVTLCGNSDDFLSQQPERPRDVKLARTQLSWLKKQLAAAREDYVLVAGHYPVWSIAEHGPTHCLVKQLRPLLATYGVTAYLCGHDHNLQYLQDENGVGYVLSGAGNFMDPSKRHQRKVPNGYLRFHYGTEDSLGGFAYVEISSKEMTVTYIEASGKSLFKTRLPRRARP
Experimental: (§1) To test for activity towards PTMP, 100 μL of a solution containing 6 mg/mL PTMP dissolved in 125 mM MOPS buffer, pH 7.0 was added per well and incubated for 0-40 min at 37° C. The reactions were stopped at the times indicated by the addition of 50 μL per well of 1M glycine/NaOH, pH11 and the absorbance at […] was measured. To test for activity towards TTMP, 100 μL of a solution containing 5 mg/mL TTMP dissolved in 80 mM MOPS buffer, 10% ethanol, pH 7.0 was added per well and incubated for 0-40 min at 37° C. The reactions were stopped at the times indicated by the addition of 50 μL per well of 0.25 M NaOH and the absorbance at […] was measured.
(§2) Where phthalein monophosphate esters were not available commercially, the monophosphate esters were prepared by the method of Bulbenko & Woodbridge (U.S. Pat. No. 4,045,290) by reaction of the appropriate phthalein compound (from Sigma-Aldrich) with phosphorus oxychloride (CAS 10025-87-3), followed by hydrolysis and purification. The monophosphate esters were further purified before use by HPLC chromatography to remove un-reacted phthalein dye. HPLC column 10 mm×150 mm ACE 5 C18 (Advance Chromatography Technologies, UK), load solvent composition, 30% methanol and 70% water containing 0.1% trifluoroacetic acid (TFA); product was eluted by a gradient from 30% methanol 0.1% TFA to 100% methanol 0.1% TFA at 3 mL/minute over 45 minutes.
(§3) Phthalein monophosphate esters prepared in Example 7 were diluted to 0.47 mg/mL in 100 mM MES pH7.4 buffer and applied to an assay as in Example 1.

TRAP5b [2] = test: as above; format: biochemical, human; set-up: 5b Activity: unit not given here; conditions: 0.47 mg/mL in 100 mM MES pH7.4
Experimental: as §1, §2, §3

Row | SMILES | relative activity for TRAP 5b over TRAP 5a compared with WO1999/050662 (TRAP5b [1]; EP 1598670) [×] | pH optimum of TRAP5b (TRAP5b [1]; WO1999/050662 (pNPP), EP1598670 (2-chloro-4-nitrophenylphosphate)) [pH] | 5a Activity (TRAP5a) | 5b Activity (TRAP5b [2]) | Ratio of 5b:5a activity (TRAP5b [2])
1 | O=[N+]([O-])c1ccc(OP(=O)(O)O)c(Cl)c1 [2-chloro-4-nitrophenylphosphate] | 0.8 | 6.4 | – | – | –
2 | Cc1c(C2(c3cc(Br)c(OP(=O)(O)O)c(Br)c3C)OS(=O)(=O)c3ccccc32)cc(Br)c(O)c1Br (centres unmarked) [Bromocresol Green, Bromocresol Green monophosphate] | – | – | 0.0036 | 0.2636 | 73.2
3 | Cc1cc(C2(c3cc(C)c(OP(=O)(O)O)c(Br)c3)OS(=O)(=O)c3ccccc32)cc(Br)c1O (centres unmarked) [Bromocresol Purple, Bromocresol Purple monophosphate] | – | – | 0.0074 | 0.4755 | 64.3
4 | O=P(O)(O)Oc1ccc(C2(c3ccc(O)c(Cl)c3)OS(=O)(=O)c3ccccc32)cc1Cl (centres unmarked) [Chlorophenol Red, Chlorophenol Red monophosphate] | – | – | 0.0067 | 0.3558 | 53.1
